Measured values: a compilation of properties of binary mixtures (doi:10.5541/ijot.303607)

Assay: xn = mol fraction of the nth substance listed
Conditions: 101 kPa

CC(O)C(=O)[O-].[NH3+]CCO (stereo not given) + O
speed of sound [m/s]
Conditions	x1 = 0.0088	x1 = 0.0135	x2 = 0.3197	x2 = 0.5253	x2 = 0.6892	x2 = 0.9027	x2 = 0.9293	x2 = 0.949	x2 = 0.9707
288.15 K	1513.4	–	–	1897.5	–	1778.8	1727.7	1676.5	1602.1
290.65 K	1520.5	1541.4	–	1891.7	1887.8	–	1728.5	1678.8	1606.7
293.15 K	1527.1	1547.4	1882.8	1886	1882.8	1776.9	1729	1680.8	–
295.65 K	1533.2	1553	1876.5	1880.3	1877.8	–	1729.3	1682.6	1614.6
298.15 K	1539	1558.2	1870.4	–	1872.8	1774.5	1729.4	1684.1	1618.1
300.65 K	1544.3	–	1864.4	1869.1	–	–	1729.3	–	1621.3
303.15 K	1549.2	1567.4	1858.5	1863.5	1862.7	–	1729	–	1624.1
305.65 K	1553.7	–	1852.6	1858	1857.7	–	1728.6	1687.2	1626.6
308.15 K	1557.8	1575.2	–	1852.5	1852.6	1767.7	1727.9	1687.7	1628.8
310.65 K	1561.5	–	1841.1	–	1847.5	–	1727	1688	1630.8
313.15 K	1565	–	1835.4	–	1842.3	1763.4	1726	1688.1	1632.4
315.65 K	1568	1584.1	1829.7	1835.9	–	1761.1	1724.7	1687.9	–
318.15 K	1570.7	1586.5	1824	–	1831.9	1758.6	–	1687.5	–
320.65 K	–	1588.5	1818.3	1824.8	1826.7	1756	–	–	1635.6
323.15 K	1575.1	1590.1	1812.7	–	–	1753.2	1719.9	1686.1	–

CC(O)C(=O)[O-].[NH3+]CCO (stereo not given) + CCO
speed of sound [m/s]
Conditions	x2 = 0.0543	x2 = 0.1051	x2 = 0.206	x2 = 0.3151	x2 = 0.4144	x2 = 0.5122	x2 = 0.6116	x2 = 0.7232	x2 = 0.8109	x2 = 0.9528
288.15 K	–	1848	1792.9	1727.2	–	1590.8	1514	–	1349.2	–
290.65 K	1863.7	1839.9	–	1720.3	1654.4	1586.3	1507.4	1416	1342	1219.2
293.15 K	1855.8	1832.1	1779	1713.6	–	–	1500.8	1409.1	1334.8	1211.3
295.65 K	1848.3	1824.7	1772.2	1707	1640.9	1573.7	1494	1402.2	1327.5	1203.3
298.15 K	–	–	1765.7	1700.7	1634.4	–	1487.3	1395.3	1320.3	1195.4
300.65 K	–	–	1765.7	1700.7	1634.4	1567.3	1487.3	1395.3	–	–
303.15 K	1828	1804.4	–	–	1621.5	1555	1474.1	–	1305.9	1179.5
305.65 K	1821.7	1798.1	1747.1	1682.1	–	–	1467.5	1374.7	1298.8	1171.5
308.15 K	–	1791.9	1741.1	1676	1608.8	1542.7	1461	1367.9	1291.6	1163.6
310.65 K	1809.5	1785.8	1735.2	1670	1602.6	1536.5	1454.5	–	1284.4	–
313.15 K	–	1779.7	1729.3	1664	1596.3	1530.3	1448	1354.3	1277.3	1147.8
315.65 K	–	1773.7	1723.4	1658	1590.1	1524.2	1441.5	1347.5	1270.2	–
318.15 K	–	1767.8	1717.5	–	1583.9	1518.1	1435	1340.8	1263.1	1132.2
320.65 K	1786.1	1762	1711.8	1646	–	1511.9	1428.6	–	1256.1	1124.5
323.15 K	1780.3	1756.1	1706	1640.2	1571.5	1505.7	1422.2	1327.3	1249	–

CC(O)C(=O)[O-].[NH3+]CCO (stereo not given) + CO
speed of sound [m/s]
Conditions	x2 = 0.0675	x2 = 0.1469	x2 = 0.2586	x2 = 0.3811	x2 = 0.4275	x2 = 0.518	x2 = 0.6083	x2 = 0.7069	x2 = 0.7972	x2 = 0.8985
288.15 K	1875.8	–	1802.2	1745.7	1721.2	1666.4	1603.6	1522	–	1301.9
290.65 K	1867.4	1839.5	1795.1	–	1715	1660	1597.9	1515.5	1422	1294.8
293.15 K	–	1831.9	1788.4	–	–	1653.7	1592	1509	1415.5	1287.8
295.65 K	1852.2	1824.6	–	1727.1	–	–	1586.1	–	1409	–
298.15 K	1845.1	1817.8	1775.2	–	1697	1641.3	1580.2	–	1402.4	–
300.65 K	1838.4	1811.2	1768.8	1715.2	1690.9	–	1574.2	1489.5	1395.8	1266.1
303.15 K	1831.9	1804.9	1762.6	1709.4	1685	–	–	1483	1389.3	1258.9
305.65 K	1825.7	1798.8	1756.6	1703.5	1679	1623.2	1562.1	1476.6	1382.8	1251.8
308.15 K	1819.6	1792.9	1750.5	1697.6	1673	1617.2	1556	–	1376.2	1244.6
310.65 K	1813.6	1787	1744.5	1691.7	1667.1	1611.2	1549.9	1463.8	1369.7	1237.5
313.15 K	1807.7	1781.1	–	1685.9	1661.1	1605.2	–	1457.3	–	–
315.65 K	1801.9	1775.2	1732.6	1680	–	1599.1	1537.6	1451	1356.6	1223.2
318.15 K	1796.2	–	1726.7	1674.2	1649.2	1593.1	1531.4	1444.5	–	1216.1
320.65 K	1790.5	1763.7	1720.8	1668.4	1643.4	1587.1	1525.2	1438.2	1343.6	1209
323.15 K	–	1758	1715	1662.7	–	1581.1	1519	1431.9	1337.2	1201.9
